# Tests used:
# [1] = biological target: platelet P2Y12 receptor (Homo sapiens, UniProt Q9H244); settings: well-known in the art; cited from earlier work
# [2] = tested on: S. epidermidis bacteria; experiment: Radiotracer uptake into bacteria, selectivity over mammalian cells (Example 4); format: cell-based; settings: 2 MBq tracer, 1 h at 37° C.
# Protocol: S. epidermidis bacteria were grown overnight in tryptic soy broth (TSB) at 37° C., with shaking at 250 rpm. The overnight culture was diluted to OD600 0.1 and incubated until mid-exponential phase was reached. 1×10^8 CFU were resuspended in 1 ml RPMI 1640. […] Bacteria and non-adherent cells were harvested by centrifugation (600×g, 5 min) and washed three times by successive centrifugations. Cell supernatants were collected in scintillation vials. After washing, the cells were transferred into scintillation vials. Adherent cells were washed three times with fresh medium (McCoy's 5A medium plus 10% foetal bovine serum). Supernatants were collected into scintillation vials. Adherent cells were detached by trypsin treatment and placed into scintillation vials. The scintillation vials for cells and supernatants were counted by gamma counter. Results were obtained as counts per min. Results were normalised for controls (no cells) and by calculating the percentage of activity in the cell containing scintillation vials compared with the total counts (cells and supernatant combined).
# [3] = tested on: platelet suspensions containing bacteria; experiment: Radiotracer uptake into platelet suspensions containing bacteria; format: cell-based, human; settings: 2 MBq tracer, 1 h at 37° C.
# Protocol: Preparation of human washed platelets: a Blood sample was collected from healthy volunteers on Acid Citrate Dextrose (ACD: 93 mM Na3-citrate, 7 mM citric acid, 14 mM dextrose, pH 6.0) containing 1 U/ml apyrase in a volume ratio of ACD to blood of 1:6. Blood was centrifuged for 5 s at 800×g followed by 5 min at 100×g to obtain platelet rich plasma (PRP). PRP was diluted 3-fold in ACD containing 1 U/ml apyrase ((Apyrase from potatoes, Grade I (A6132 Sigma-Aldrich)) and centrifuged at 1000×g to obtain a platelet pellet. The platelet pellet was resuspended at a concentration of 3×10^8 ml^−1 in Tyrode's buffer (137 mM NaCl, 12 mM NaHCO3, 2 mM KCl, 0.34 mM Na2HPO4, 1 mM MgCl2, 5.5 mM glucose, 5 mM Hepes, 0.35% Bovine Serum Albumine from Sigma Aldrich A3294) and Hepes refers to 4-(2-Hydroxyethyl)piperazine-1-ethanesulfonic acid, N-(2-Hydroxyethyl)piperazine-N′-(2-ethanesulfonic acid) (H4034, Sigma-Aldrich).
# Bacteria and platelets were harvested by centrifugation (1000×g, 10 min) and washed three times by successive centrifugations (1000×g for 10 min). Supernatants were collected in scintillation vials. After washing, the cells were transferred into scintillation vials. Cells and supernatants were counted by gamma counter (2470 Wizard^2™ (Perkin Elmer))
# Results were obtained as counts per min. […]
# [4] = tested on: THP1 cells; experiment: Radiotracer uptake into THP1 cells; format: cell-based, human; settings: 2 MBq tracer, 1 h at 37° C.
# Protocol: (§1) THP1 (ATCC® TIB-202™) and HL60 (ATCC® CCL-240™) cell lines were grown in RPMI 1640 tissue culture medium supplemented with L-glutamine, 10% foetal calf serum and 1% penicillin/streptomycin at 37° C. and 5% CO2. HT29 cell line (ATCC® HTB-38) was grown in McCoy's 5A medium and 10% foetal bovine serum at 37° C. and 5% CO2.
# (§2) Non-adherent cell lines (HL60, THP1; 1×10^6 cells ml^−1) were harvested, washed and resuspended in 1 ml tissue culture medium. The adherent cells HT29 were maintained in 6-well plates at 80% confluence.
# (§3) Bacteria and non-adherent cells were harvested by centrifugation (600×g, 5 min) and washed three times by successive centrifugations. Cell supernatants were collected in scintillation vials. After washing, the cells were transferred into scintillation vials. Adherent cells were washed three times with fresh medium (McCoy's 5A medium plus 10% foetal bovine serum). Supernatants were collected into scintillation vials. Adherent cells were detached by trypsin treatment and placed into scintillation vials. The scintillation vials for cells and supernatants were counted by gamma counter. Results were obtained as counts per min. Results were normalised for controls (no cells) and by calculating the percentage of activity in the cell containing scintillation vials compared with the total counts (cells and supernatant combined).
# [5] = tested on: HT29 cells; experiment: Radiotracer uptake into HT29 cells; format: cell-based, human; settings: 2 MBq tracer, 1 h at 37° C.
# Protocol: as §1, §2, §3
# [6] = tested on: HL60 cells; experiment: Radiotracer uptake into HL60 cells; format: cell-based, human; settings: 2 MBq tracer, 1 h at 37° C.
# Protocol: as §1, §2, §3
# Sequence of platelet P2Y12 receptor (Q9H244 whole entry): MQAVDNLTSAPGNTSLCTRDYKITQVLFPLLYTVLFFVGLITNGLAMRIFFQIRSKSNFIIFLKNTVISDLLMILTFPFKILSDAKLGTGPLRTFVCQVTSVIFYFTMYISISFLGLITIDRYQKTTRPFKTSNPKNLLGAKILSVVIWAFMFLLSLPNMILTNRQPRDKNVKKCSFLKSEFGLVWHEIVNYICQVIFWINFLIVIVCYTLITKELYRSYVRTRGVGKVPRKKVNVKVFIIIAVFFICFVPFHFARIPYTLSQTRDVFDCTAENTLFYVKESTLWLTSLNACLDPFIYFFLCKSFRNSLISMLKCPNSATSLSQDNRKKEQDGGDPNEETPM
Structure (SMILES),binding to platelet P2Y12 receptor [1],uptake into bacteria [2],"relative activity associated with the cell mixture, relative to the activity of 18F-FDG [3]",uptake into THP1 (leukocytic) cells [4],uptake into HT29 (tumor) cells [5],uptake into HL-60 (leukocytic) cells [6]
CCCSc1nc(N[C@@H]2C[C@H]2c2ccc(F)c(F)c2)c2nnn([C@@H]3C[C@H](OCCO)[C@@H](O)[C@H]3O)c2n1 [Triafluocyl],binds the platelet P2Y12 receptor reversibly,,,,,
"CCCSc1nc(NC2CC2c2ccc([18F])c(F)c2)c2nnn([C@@H]3C[C@H](OCCO)[C@@H](O)[C@H]3O)c2n1 (stereo partly drawn) [^18F-Triafluocyl, (1S,2S,3R,5S)-3-(7-((2-(3-fluoro-4-(fluoro-^18F)phenyl)cyclopropyl)amino)-5-(propylthio)-3H-[1,2,3]triazolo[4,5-d]pyrimidin-3-yl)-5-(2-hydroxyethoxy)cyclopentane-1,2-diol]",,uptake into bacteria,about 10 fold,no uptake was observed,no uptake was observed,no uptake was observed

# — patent US20220143226A1, “USE OF TRIAZOLO[4,5-D]PYRIMIDINE DERIVATIVES” (UNIVERSITÉ DE LIÈGE, priority 2019, published 2022)
